Experiment [1] concerns the target T1, RpfC^Q22A liposome (Xanthomonas campestris pv. campestris, UniProt P0C0F7, Q22A).
T1 construct: His6 (C); made in house; host or cells: E. coli BL21(DE3), pET30a
Nature of the experiment: MST binding, RpfC^Q22A liposome. As for the experimental part:
(§1) Binding reactions of RpfC to DSF was measured by microscale thermophoresis in a Monolith NT.Label Free (Nano Temper Technologies GMBH, Germany) instrument which detects changes in size, charge and conformation induced by binding. RpfC liposomes were collected with centrifugation of 200,000 g for 40 min and resuspended in MST buffer (50 mM Tris-HCl pH 7.8, 150 mM NaCl, 10 mM MgCl2, 0.05% Tween-20) to an approximate concentration of 0.1 μM. A range of concentration of DSF (range from 0.06 μM to 2 mM) in assay buffer (50 mM Tris-HCl pH 7.8, 150 mM NaCl, 10 mM MgCl2, 0.05% Tween-20, 5% methanol) was incubated with RpfC liposomes (1:1, v/v) for 10 minutes. The sample was loaded into the NT.Label Free standard capillaries and measured with 20% LED power and 40% MST power. Purified sensor protein was dissolved in reaction buffer (50 mM Tris-HCl pH 8.5, 150 mM NaCl, 0.1% Tween-20) to a final concentration as 8 μM. Dilute DSF from 0.0122 μM to 25 μM in buffer (50 mM Tris-HCl pH 8.5, 150 mM NaCl, 0.25‰ methanol). Different concentrations of DSF and sensor protein (1:1, v/v) were mixed and loaded into NT.Label Free standard capillaries. […]
(§2) Supplementary file ppat.1006304.s004.pdf: S4 Fig Substitution of essential amino acid impact DSF-RpfC interaction. Microscale thermophoresis (MST) was used to quantify the binding affinity between DSF and RpfC derivates. […]

For experiment [2], the system named is cell-cell communication. Further details: method as in PMID 14731288. The conditions noted are these: cited from earlier work.
Experiment [3] addresses T2, RpfC sensor peptide (Xanthomonas campestris pv. campestris, UniProt P0C0F7).
T2 construct: GST (N, cleaved yes); made in house; host or cells: E. coli BL21 (DE3), pGEX6P-1
Nature of the experiment: Circular dichroism of RpfC sensor peptide. The conditions noted are these: sensor 60 μM; DSF 0, 100, 500 μM. As for the experimental part: To determine if DSF has impact on RpfC sensor conformation change, CD analysis was carried out on a Chirascan CD Spectrometer (Applied Photophysics, UK), with 10 mm pathlength and 1 nm bandwidth. Sensor protein with GST tag cleaved off was dissolved in buffer (50 mM Tris-HCl pH 8.5, 150 mM NaCl) to 60 μM. Dilute DSF with Sensor protein to a series of concentration (0 μM, 100 μM and 500 μM). CD wavelength scans were collected between 200 nm-260 nm. The spectra data were analyzed on the http://dichroweb.cryst.bbk.ac.uk website with Contin-LL method.

Experiment [4] addresses T3, RpfC^FL liposome (Xanthomonas campestris pv. campestris, UniProt P0C0F7).
T3 construct: His6 (C); made in house; host or cells: E. coli BL21(DE3), pET30a
Description: Limited proteolysis of RpfC^FL liposome. The conditions noted are these: with AMP-PNP, vs DSF minus control. The method, then: The limited proteolysis experiments were performed at 0°C with 1.4 μg RpfC liposomes in a reaction buffer containing 50 mM Tris-HCl, pH 8.0, 100 mM NaCl, 2 mM DTT and 1.13 mM AMP-PNP. Trypsin was added to a final concentration of 0.018 μg μl^-1 to degrade RpfC liposome. Aliquot was removed at indicated time and the reaction was stopped by 5 × SDS loading buffer (250 mM Tris-HCl pH 6.8, 10% (w/v) SDS, 0.5% (w/v) bromophenol blue, 50% (v/v) glycerol, 25 mM PMSF). Samples were separated by 12% SDS-PAGE gel and protein bands were detected by silver staining. The sequence of the different peptide fragments were determined by a nanoLC-MS/MS with Orbitrap Fusion system (Thermo scientific, USA).

Experiment [5] has as its target T4, soluble RpfC^Δinput (Xanthomonas campestris pv. campestris, UniProt P0C0F7).
T4 construct: a truncated, soluble RpfC protein (RpfC^Δinput) lacking the N-terminal input region (including sensor and TM domains) was obtained and purified; His6 (C); made in house; host or cells: E. coli BL21(DE3), pET30a
Description: Thermal shift assay, soluble RpfC^Δinput. It counts as binding. As for the experimental part:
(§3) DSF was mixed with purified proteins or liposomes of RpfC to a final concentration of 0 μM, 5 μM or 10 μM respectively in the reaction buffer (50 mM Tris-HCl pH 7.8, 25 mM NaCl, 100 mM KCl). The protein concentration was 0.5–1 μg/μl. The TSA was performed by a Prometheus NT.48 nanoDSF device with a temperature gradient of 20–95°C, 1°C /min. Unfolding transition points were determined according to the changes of intrinsic tryptophan fluorescence at 330 nm, 350 nm. The ratio of fluorescence and the melting temperature (Tm) were calculated by the NT Melting Control software (NanoTemper Technologies).

Experiment [6] deals with T3, RpfC^FL liposome. Nature of the experiment: In vitro autokinase (phosphorylation) assay, RpfC^FL liposome. The settings on record: 10 μM DSF. Type of experiment: biochemical. As for the experimental part: (§4) in vitro phosphorylation assay was conducted as described in our previous study. For autophosphoylation, RpfC liposomes or IMV were incubated with 100 μM ATP containing 10 μCi [γ-^32P]ATP (PerkinElmer, USA) in autophosphorylation buffer (50 mM Tris-HCl, pH 7.8, 2 mM DTT, 25 mM NaCl, 25 mM KCl, 5 mM MgCl2) for indicated time (28°C). If necessary, DSF was added into the mixture 20 min before addition of ATP. The reaction was stopped with 6 × SDS-PAGE loading buffer. The phosphorylated proteins were separated by 12% SDS-PAGE. After SDS-PAGE electrophoresis, gels were separated from back glass plate and placed in a Ziploc bag and exposed to a phosphor screen for 1 hour. The screen was scanned with a PhosphorImage system (Amersham Biosciences, USA) at […]. If necessary, signal intensity was measured by Quantity One software (Bio-Rad).

Experiment [7] concerns the target T5, RpfC^S18A liposome (Xanthomonas campestris pv. campestris, UniProt P0C0F7, S18A).
T5 construct: His6 (C); made in house; host or cells: E. coli BL21(DE3), pET30a
Description: MST binding, RpfC^S18A liposome. The method, then:
as §1, §2

In experiment [8] the target is T6, RpfC^S3A liposome (Xanthomonas campestris pv. campestris, UniProt P0C0F7, S3A).
T6 construct: His6 (C); made in house; host or cells: E. coli BL21(DE3), pET30a
Nature of the experiment: Autokinase assay, RpfC^S3A liposome. The conditions noted are these: 0.75 μM DSF, 5 min. It counts as biochemical. As for the experimental part:
as §4

Experiment [9] has as its target T7, RpfC^S18T liposome (Xanthomonas campestris pv. campestris, UniProt P0C0F7, S18T).
T7 construct: His6 (C); made in house; host or cells: E. coli BL21(DE3), pET30a
Nature of the experiment: Autokinase assay, RpfC^S18T liposome. Type of experiment: biochemical. The conditions noted are these: 0.75 μM DSF, 5 min; increase slightly lower than WT RpfC. As for the experimental part:
as §4

Experiment [10] deals with T8, RpfC^D17A liposome (Xanthomonas campestris pv. campestris, UniProt P0C0F7, D17A).
T8 construct: His6 (C); made in house; host or cells: E. coli BL21(DE3), pET30a
Nature of the experiment: MST binding, RpfC^D17A liposome. As for the experimental part:
as §1, §2

For experiment [11], the target named is T9, RpfC^Δsensor liposome (Xanthomonas campestris pv. campestris, UniProt P0C0F7).
T9 construct: His6 (C); made in house; host or cells: E. coli BL21(DE3), pET30a
Nature of the experiment: MST binding, RpfC^Δsensor liposome. The method, then:
Binding reactions of RpfC to DSF was measured by microscale thermophoresis in a Monolith NT.Label Free (Nano Temper Technologies GMBH, Germany) instrument which detects changes in size, charge and conformation induced by binding. RpfC liposomes were collected with centrifugation of 200,000 g for 40 min and resuspended in MST buffer (50 mM Tris-HCl pH 7.8, 150 mM NaCl, 10 mM MgCl2, 0.05% Tween-20) to an approximate concentration of 0.1 μM. A range of concentration of DSF (range from 0.06 μM to 2 mM) in assay buffer (50 mM Tris-HCl pH 7.8, 150 mM NaCl, 10 mM MgCl2, 0.05% Tween-20, 5% methanol) was incubated with RpfC liposomes (1:1, v/v) for 10 minutes. The sample was loaded into the NT.Label Free standard capillaries and measured with 20% LED power and 40% MST power. Purified sensor protein was dissolved in reaction buffer (50 mM Tris-HCl pH 8.5, 150 mM NaCl, 0.1% Tween-20) to a final concentration as 8 μM. Dilute DSF from 0.0122 μM to 25 μM in buffer (50 mM Tris-HCl pH 8.5, 150 mM NaCl, 0.25‰ methanol). Different concentrations of DSF and sensor protein (1:1, v/v) were mixed and loaded into NT.Label Free standard capillaries. The label free MST assay was performed with 20% LED power and 40% MST power. KD Fit function of the Nano Temper Analysis Software Version 1.5.41 was used to fit curve and calculate the value of dissociation constant (Kd).

In experiment [12] the target is T9, RpfC^Δsensor liposome. Nature of the experiment: Thermal shift assay, RpfC^Δsensor liposome. It counts as binding. As for the experimental part: as §3
In experiment [13] the target is RpfS. Further details: method as in PMID 24617591, PMID 23815566. The settings on record: by ITC; read-out: binding affinity (Kd) DSF-RpfS; cited from earlier work. (In general: ITC needs no label: the signal is the heat of the interaction.)

We go through one compound from article PMC5391125, “Fatty acid DSF binds and allosterically activates histidine kinase RpfC of phytopathogenic bacterium Xanthomonas campestris pv. campestris to regulate quorum-sensing and virulence” (PLoS Pathogens, 2017).

The Kd is a measure of binding affinity in units of concentration. Consider `CC(C)CCCCCCC/C=C\C(=O)O` [DSF, cis-11-methyl-dodecenoic acid], for which the “binding between DSF and RpfC liposome” value in [1], in [7] and in experiment [10] was “completely eliminated the binding” throughout. Also, in experiment [2], the “minimal bioactive concentration of DSF required for eliciting cell-cell communication” value is “approximately 0.5 μM”. The “ratio of strand in secondary structure” value in [3] is recorded as “gradually elevated”. Further, the “DHp-CA fragment (30 kDa) after trypsin limited proteolysis” value in experiment [4] is “large accumulation”. Further, the “thermal shift after DSF stimulation” value in experiment [5] and in experiment [12] was “no thermal shift was detected” each time. Also, the “level of RpfC^FL-P phosphorylation compared with the control” value in [6] was “approximately doubled”. For the same compound, in [6], the “time of increase in phosphorylation level post DSF addition” value was found to be 2 min. Moreover, in [8], the “RpfC-P level under DSF stimulation” value is given as “remarkably increased”. Further, the “autophosphorylation level under DSF stimulation” value in experiment [9] is “increased”. For the same compound, in [11], the “binding to DSF” value is given as “didn’t bind”. Besides, in experiment [13], the Kd was 1.4 µM.
